Data reported in patent US6753337B2, “Alkynyl containing hydroxamic acid compounds as matrix metalloproteinase/tace inhibitors” (Wyeth Holdings Corporation, priority 1999, dated 2004).
pIC50: −log10 of the molar value. Like-named read-outs stand apart in the source and are kept apart here.

Columns and labels:
THP-1 cells = assay: Human monocytic THP-1 cell differentiation assay for soluble proteins (THP-1 soluble protein assay); format: cell-based; settings: LPS-stimulated THP-1 cells, soluble protein not given
Text: Mitogenic stimulation of THP-1 cells cause differentiation into macrophage like cells with concomitant secretion of tumor necrosis factor (TNF-α) and TNF receptor (TNF-R p75/80 and TNF-R p55160) and Interleukin-8 (IL-8), among other proteins. In addition, non-stimulated THP-1 cells shed both the p75/80 and the p55/60 receptors over time. The release of membrane bound TNF-α and possibly TNF-R p75/80 and TNF-R p55/60, but not IL-8, is mediated by an enzyme called TNF-α converting enzyme or TACE.
THP-1 cells (from ATCC) are a human monocytic cell line which were obtained from the peripheral blood of a person with acute monocytic leukemia. They can be grown in culture and differentiated into macrophage like cells by stimulation with mitogens.
Each vial of cells are cultured for about two weeks prior to being used for an assay and then are used for only 4 to 6 weeks to screen compounds.
Cell exposure to DMSO was limited to 0.1% final concentration. […] Compounds can be evaluated for their effect on basal (non-stimulated) shedding of the receptors by replacing the LPS with […] of THP-1 media.
Plates are placed into an incubator set at 5% CO2 and at 37° C. After 4 hours of incubation, […] of tissue culture supernatant (TCS) is removed for use in an TNF-α ELISA. Following 24 hours of incubation, […] of TCS is removed and used for analysis in TNF-R p75/80, TNF-R p55160 and IL-8 ELISAs.
In addition, at the 24 hours timepoint, and the cells for each treatment group are collected by resuspension in 500 μl/well of THP-1 media and transferred into a FACS tube. […] The samples are run on a Becton Dickinson FaxCaliber FLOW cytometry machine and the amount of dye taken up by each cell is measured in the high red wavelength (FL3). Only cells with compromised membranes (dead or dying) can take up PI. The percent of live cells is calculated by the number of cells not stained with PI, divided by the total number of cells in the sample. The viability values calculated for the drug treated groups were compared to the viability value calculated for the vehicle treated mitogen stimulated group (“vehicle positive control”) to determine the “percent change from control”. This “percent change from control” value is an indicator of drug toxicity.
The quantity of soluble TNF-α, TNF-R p75/80 and TNF-R p55160 and IL-8 in the TCS of the THP-1 cell cultures are obtained with commercially available ELISAs from R&D Systems, by extrapolation from a standard curve generated with kit standards. The number of cells that either take up or exclude PI are measured by the FLOW cytometry machine and visualized by histograms using commercially available Cytologic software for each treatment group including all controls.
Biological variability in the magnitude of the response of THP-1 cell cultures requires that experiments be compared on the basis of percent change from “vehicle positive control” for each drug concentration. Percent change in each soluble protein evaluated from the “vehicle positive control” was calculated for each compound concentration with the following formula: [formula]
For the soluble protein (TNF-α, p75/80, p55/60, IL-8) studies under stimulated conditions, the mean pg/ml of duplicate wells were determined and the results expressed as percent change from “vehicle positive control”. For the soluble protein (p75/80 and p55/60 receptors) studies under non-stimulated conditions, the mean pg/ml of duplicate wells were determined and the results expressed as percent change from “vehicle positive control” utilizing the following formula: [formula]
IC50 values for each compound are calculated by non-linear regression analysis using customized software utilizing the JUMP statistical package.
For the cell viability studies, the viabilities (PI exclusion) of pooled duplicate wells were determined and the results expressed as % change from “vehicle positive control”.

MMP-9 = MMP-9 (Homo sapiens, UniProt P14780); assay: MMP-9 inhibition (thiopeptide or fluorescent peptide substrate); format: biochemical; settings: read-out: MMP9 IC50
Sequence of MMP-9 (P14780 94-707): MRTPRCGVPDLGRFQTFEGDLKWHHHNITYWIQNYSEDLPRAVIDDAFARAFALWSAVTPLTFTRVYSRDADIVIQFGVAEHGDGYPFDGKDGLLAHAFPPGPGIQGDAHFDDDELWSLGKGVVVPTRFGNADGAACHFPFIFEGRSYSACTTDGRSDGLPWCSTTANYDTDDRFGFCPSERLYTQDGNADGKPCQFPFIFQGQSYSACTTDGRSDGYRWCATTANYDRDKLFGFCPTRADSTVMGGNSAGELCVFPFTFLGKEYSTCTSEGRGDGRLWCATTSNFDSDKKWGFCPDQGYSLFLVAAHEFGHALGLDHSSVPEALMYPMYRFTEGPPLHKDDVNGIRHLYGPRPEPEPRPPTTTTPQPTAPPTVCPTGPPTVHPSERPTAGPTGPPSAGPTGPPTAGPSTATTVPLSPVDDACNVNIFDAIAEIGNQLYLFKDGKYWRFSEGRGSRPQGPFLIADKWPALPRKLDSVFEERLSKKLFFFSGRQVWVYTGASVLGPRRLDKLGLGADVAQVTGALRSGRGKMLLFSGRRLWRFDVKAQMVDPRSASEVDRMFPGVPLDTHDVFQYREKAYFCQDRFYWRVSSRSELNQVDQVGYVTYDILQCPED
Protocol: (§1) These standard pharmacological test procedures are based on the cleavage of a thiopeptide substrates such as Ac-Pro-Leu-Gly(2-mercapto-4-methyl-pentanoyl)-Leu-Gly-OEt by the matrix metalloproteinases MMP-1, MMP-13 (collagenases) or MMP-9 (gelatinase), which results in the release of a substrate product that reacts colorimetrically with DTNB (5,5′-dithiobis(2-nitro-benzoic acid)). The enzyme activity is measured by the rate of the color increase. The thiopeptide substrate is made up fresh as a 20 mM stock in 100% DMSO and the DTNB is dissolved in 100% DMSO as a 100 mM stock and stored in the dark at room temperature. Both the substrate and DTNB are diluted together to 1 mM with substrate buffer (50 mM HEPES pH 7.5, 5 mM CaCl2) before use. The stock of enzyme is diluted with buffer (50 mM HEPES, pH 7.5, 5 mM CaCl2, 0.02% Brij) to the desired final concentration. The buffer, enzyme, vehicle or inhibitor, and DTNB/substrate are added in this order to a 96 well plate (total reaction volume of 200 μl) and the increase in color is monitored spectrophotometrically for 5 minutes at 405 nm on a plate reader and the increase in color over time is plotted as a linear line.
(§2) Alternatively, a fluorescent peptide substrate is used. In this test procedure, the peptide substrate contains a fluorescent group and a quenching group. Upon cleavage of the substrate by an MMP, the fluorescence that is generated is quantitated on the fluorescence plate reader. The assay is run in HCBC assay buffer (50 mM HEPES, pH 7.0, 5 mM Ca^+2, 0.02% Brij, 0.5% Cysteine), with human recombinant MMP-1, MMP-9, or MMP-13. The substrate is dissolved in methanol and stored frozen in 1 mM aliquots. For the assay, substrate and enzymes are diluted in HCBC buffer to the desired concentrations. Compounds are added to the 96 well plate containing enzyme and the reaction is started by the addition of substrate. The reaction is read (excitation 340 nm, emission 444 nm) for 10 min. and the increase in fluorescence over time is plotted as a linear line.
(§3) For either the thiopeptide or fluorescent peptide test procedures, the slope of the line is calculated and represents the reaction rate. The linearity of the reaction rate is confirmed (r^2>0.85). The mean (x±sem) of the control rate is calculated and compared for statistical significance (p<0.05) with drug-treated rates using Dunnett's multiple comparison test. Dose-response relationships can be generated using multiple doses of drug and IC50 values with 95% CI are estimated using linear regression.

MMP-1 = target: T1, MMP-1 (Homo sapiens, UniProt P03956); assay: MMP-1 inhibition (thiopeptide or fluorescent peptide substrate); format: biochemical; settings: read-out: MMP1 IC50
T1 sequence (P03956 100-469): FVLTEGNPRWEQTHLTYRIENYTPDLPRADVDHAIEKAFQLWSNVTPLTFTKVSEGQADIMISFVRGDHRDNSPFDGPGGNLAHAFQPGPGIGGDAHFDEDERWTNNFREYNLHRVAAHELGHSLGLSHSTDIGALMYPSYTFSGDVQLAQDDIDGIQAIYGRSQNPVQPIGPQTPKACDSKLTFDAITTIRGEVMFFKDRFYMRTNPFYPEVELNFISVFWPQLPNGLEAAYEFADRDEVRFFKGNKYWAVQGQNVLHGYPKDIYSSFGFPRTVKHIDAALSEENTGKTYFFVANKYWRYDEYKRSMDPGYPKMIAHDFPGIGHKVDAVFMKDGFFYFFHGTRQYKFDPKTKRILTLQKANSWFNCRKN
Protocol: as §1, §2, §3

Structure (SMILES)	pIC50 (MMP-9)	pIC50 (MMP-1)	IC50 (MMP-1; cells that print nM)	inhibition at 3 µM (THP-1 cells)
CC#CCOc1ccc(S(=O)(=O)C2(C(=O)NO)CCN(Cc3ccc(Br)cc3)CC2)cc1 [Example 1, 1-(4-Bromo-benzyl)-4-(4-but-2-ynyxoy-benzenesulfonyl)-piperdine-4-carboxylic acid hydroxyamide]	6.41	5.48		46%
CC#CCOc1ccc(S(=O)(=O)C2(C(=O)NO)CCN(Cc3ccc(OC)cc3)CC2)cc1 [Example 2, 4-(4-But-2-ynyloxy-benzenesulfonyl)-1-(4-methoxy-benzyl)-piperdine-4-carboxylic acid hydroxyamide]	6.79	5.59		68%
CC#CCOc1ccc(S(=O)(=O)C2(C(=O)NO)CCN(Cc3ccccc3)CC2)cc1 [Example 4, 1-Benzyl-4-(4-but-2-ynyloxy-benzenesulfonyl)-piperdine-4-carboxylic acid hydroxyamide]	6.83	5.59		25%
CC#CCOc1ccc(S(=O)(=O)C2(C(=O)NO)CCN(Cc3ccc(C#N)cc3)CC2)cc1 [Example 8, 4-(4-But-2-ynyloxy-benzenesulfonyl)-1-(4-cyano-benzyl)-piperidine-4-carboxylic acid hydroxyamide]	6.66	5.33		21%
CC#CCOc1ccc(S(=O)(=O)C2(C(=O)NO)CCOCC2)cc1 [Example 20, 4-{[4-(2-butynyloxy)phenyl]sulfonyl}-N-hydroxytetrahydro-2H-pyran-4-carboxamide]	6.25		2640 nM	47%
CC#CCOc1cccc(S(=O)(=O)C2(C(=O)NO)CCN(Cc3ccccc3)CC2)c1 [Example 21, 1-benzyl-4-{[3-(2-butynyloxy)phenyl]sulfonyl}-N-hydroxy-4-piperdine carboxamide]	5.46	< 5.00		6%

Second part, led by results:

pIC50 (MMP-9)	pIC50 (MMP-1)	IC50 (MMP-1; cells that print nM)	Structure (SMILES)	inhibition at 3 µM (THP-1 cells)
6.55	5.05		CC#CCOc1ccc(S(=O)(=O)C2(C(=O)NO)CCN(Cc3ccc(Cl)cc3)CC2)cc1 [Example 3, 4-(4-But-2-ynyloxy-benzenesulfonyl)-1-(4-chloro-benzyl)-piperdine-4-carboxylic acid hydroxyamide]	34%
6.40	6.52		CCC#CCOc1ccc(S(=O)(=O)C2(C(=O)NO)CCN(Cc3ccc(Br)cc3)CC2)cc1 [Example 5, 1-(4-Bromo-benzyl)-4-(4-pent-2-ynyloxy-benzenesulfonyl)-piperdine-4-carboxylic acid hydroxyamide]	30%
6.65	5.60		CC#CCOc1ccc(S(=O)(=O)C2(C(=O)NO)CCN(Cc3ccc(F)cc3)CC2)cc1 [Example 7, 4-(4-But-2-ynyloxy-benzenesulfonyl)-1-(4-fluoro-benzyl)-piperidine-4-carboxylic acid hydroxyamide]	21%
7.02	5.68		CC#CCOc1ccc(S(=O)(=O)C2(C(=O)NO)CCN(Cc3ccc(C)cc3)CC2)cc1 [Example 9, 4-(4-But-2-ynyloxy-benzenesulfonyl)-1-(4-methyl-benzyl)-piperidine-4-carboxylic acid hydroxamide]	12%
8.24	6.84		C#CCOc1ccc(S(=O)(=O)C2(C(=O)NO)CCN(Cc3ccc(Br)cc3)CC2)cc1 [Example 11, 1-(4-Bromo-benzyl)-4-(4-prop-2-ynyloxy-benzenesulfonyl)-piperdine-4-carboxylic acid hydroxyamide]	7%
6.00	4.82		O=C(NO)C1(S(=O)(=O)c2ccc(OCC#CCN3CCCCC3)cc2)CCN(Cc2ccc(Br)cc2)CC1 [Example 12, 1-(4-bromo-benzyl)-4-[4-(4-piperidin-1-yl-but-2-ynyloxy)-benzenesulfonyl]-piperidine-4-carboxylic acid hydroxyamide]	58%
